The values that follow come from ChEMBL document CHEMBL2046380, “Synthesis and structure-activity relationship of disubstituted benzamides as a novel class of antimalarial agents” (Bioorg Med Chem Lett, 2012).

The subject of test [1] is Plasmodium falciparum. In words: Antimalarial activity against […] incubated for 72 hrs by DNA staining based MARK1 growth inhibition assay. In kind it is functional, organism-based.
Test [2] concerns HEK293. The test is described as follows: Cytotoxicity against human HEK293 cells after 72 hrs by […] CellTiterGlo reagent assay. To be noted: HEK293, 72 h. In kind it is cell-based.
For test [3], the system named is Plasmodium falciparum. The test is described as follows: Antimalarial activity against chloroquine-sensitive Plasmodium falciparum 3D7 incubated for 72 hrs by DNA staining based MAR3D7 growth inhibition assay. In kind it is functional, organism-based. To be noted: 3D7, 72 h.
Test [4] concerns HepG2. In words: Cytotoxicity against human HepG2 cells after 72 hrs by […] CellTiterGlo reagent assay. To be noted: HepG2, 72 h. In kind it is cell-based. Background: Resazurin is reduced to fluorescent resorufin, in cell work by metabolically active cells.
For test [5], the system named is BJ. In words: Cytotoxicity against human BJ cells after 72 hrs by […] CellTiterGlo reagent assay. In kind it is cell-based.
Test [6] has as its system Raji. In words: Cytotoxicity against human Raji cells after 72 hrs by […] CellTiterGlo reagent assay. In kind it is cell-based.

Molecules are shown by their SMILES.

`CC(C)N(Cc1cccc(OCCCCCC(=O)O)c1)C(=O)c1ccc(-c2ccoc2)cc1`: the EC50 in test [1] is > 15 µM; in test [2], > 26 µM; in test [3], > 15 µM; in test [4] it was > 26 µM; in test [5], > 26 µM; in test [6], > 26 µM.

Consider `CCOC(=O)CCCCCOc1cccc(CN(C(=O)c2ccc(-c3ccc4ccccc4c3)cc2)C(C)C)c1`, for which the 50% effective concentration (EC50) in test [1] is > 15 µM; in test [2] it was > 26 µM; in test [3], > 15 µM; in test [4], > 26 µM; in test [5] it was > 26 µM; in test [6], > 26 µM.

Regarding `CCOC(=O)CCCCCOc1cccc(CN(C(=O)c2ccc(-c3cccc(OCC)c3)cc2)C(C)C)c1`, the EC50 in test [1] is > 12.4 µM; in test [2] it was > 22.4 µM; in test [3], > 12.4 µM; in test [4], > 22.4 µM; in test [5], > 22.4 µM; in test [6], > 22.4 µM.

Regarding `CCCN(Cc1cccc(OCCCCCC(=O)OCC)c1)C(=O)c1ccc(-c2ccc3c(c2)OCO3)cc1`, the EC50 in test [1] was > 15 µM; in test [2] it was > 26 µM; in test [3], > 15 µM; in test [4], > 26 µM; in test [5] it was > 26 µM; in test [6] it was > 26 µM.

Consider `CC(C)N(Cc1cccc(OCCCCCC(=O)O)c1)C(=O)c1ccc(-c2cccc(OC(F)(F)F)c2)cc1`, for which the EC50 in test [1] is > 15 µM; in test [2], > 26 µM; in test [3] it was > 15 µM; in test [4], > 26 µM; in test [5], > 26 µM; in test [6] it was > 26 µM.

With `CCOC(=O)CCCCCOc1cccc(CN(C(=O)c2ccc(-c3cccc(S(C)(=O)=O)c3)cc2)C(C)C)c1`, the EC50 in test [1] was > 15 µM; in test [2], > 26 µM; in test [3], > 15 µM; in test [4], > 26 µM; in test [5], > 26 µM; in test [6] it was > 26 µM.

With `CC(C)N(Cc1cccc(OCCCCCC(=O)O)c1)C(=O)c1ccc(-c2cccc(C(F)(F)F)c2)cc1`, the EC50 in test [1] was > 15 µM; in test [2] it was > 26 µM; in test [3] it was > 15 µM; in test [4] it was > 26 µM; in test [5], > 26 µM; in test [6] it was > 26 µM.

As to `C[C@@H](NC(=O)c1ccc(-c2ccc3c(c2)OCO3)cc1)c1ccccc1`, the EC50 was > 15 µM in test [1]; > 26 µM in test [2]; > 15 µM in test [3]; > 26 µM in test [4]; > 26 µM in test [5]; > 26 µM in test [6].

For the compound `CCOC(=O)CCCCCOc1cccc(C=O)c1`, the EC50 was > 15 µM in test [1]; > 26 µM in test [2]; > 15 µM in test [3]; > 26 µM in test [4]; > 26 µM in test [5]; > 26 µM in test [6].

For the compound `CC(C)N(Cc1cccc(OCCCCCC(=O)O)c1)C(=O)c1ccc(-c2ccc3ccccc3c2)cc1`, the EC50 was > 15 µM in test [1]; > 26 µM in test [2]; < 0.0004 µM in test [3]; > 26 µM in test [4]; > 26 µM in test [5]; > 26 µM in test [6].

As to `CC(C)N(Cc1cccc(OCCCCCC(=O)O)c1)C(=O)c1ccc(-c2ccc3c(c2)OCO3)cc1`, the EC50 in test [1] is 0.438 µM; in test [2], > 26 µM; in test [3], 0.0604 µM; in test [4], > 26 µM; in test [5], > 26 µM; in test [6], > 26 µM.

With `CCOC(=O)CCCCCOc1cccc(CN(C(=O)c2ccc(-c3cccc(OC)c3)cc2)C(C)C)c1`, the EC50 is > 11.7 µM in test [1]; > 21.1 µM in test [2]; > 11.7 µM in test [3]; > 21.1 µM in test [4]; > 21.1 µM in test [5]; > 21 µM in test [6].

As to `CC(C)N(Cc1cccc(OCCCCCC(=O)O)c1)C(=O)c1ccc(-c2ccc3[nH]ccc3c2)cc1`, the EC50 is > 15 µM in test [1]; > 26 µM in test [2]; > 15 µM in test [3]; > 26 µM in test [4]; > 26 µM in test [5]; > 26 µM in test [6].

Take `O=C(Nc1ccc2c(c1)OCO2)c1cc(-c2cccs2)nc2ccccc12`: the EC50 was > 15 µM in test [1]; > 26 µM in test [2]; > 15 µM in test [3]; > 26 µM in test [4]; > 26 µM in test [5]; > 26 µM in test [6].

Turning to `CC(C)N(Cc1cccc(OCCCCCC(=O)O)c1)C(=O)c1ccc(-c2ccc(Cl)c(Cl)c2)cc1`, the EC50 in test [1] was 0.0175 µM; in test [2], > 26 µM; in test [3] it was > 15 µM; in test [4], > 26 µM; in test [5], > 26 µM; in test [6] it was > 26 µM.

As for `CCOc1cccc(-c2ccc(C(=O)N(Cc3cccc(OCCCCCC(=O)O)c3)C(C)C)cc2)c1`, the EC50 in test [1] was > 11.5 µM; in test [2], > 20.9 µM; in test [3], > 11.5 µM; in test [4], > 20.9 µM; in test [5] it was > 20.9 µM; in test [6] it was > 20.9 µM.

For the compound `CC(C)Oc1cccc(-c2ccc(C(=O)N(Cc3cccc(OCCCCCC(=O)O)c3)C(C)C)cc2)c1`, the EC50 is > 15 µM in test [1]; > 26 µM in test [2]; > 15 µM in test [3]; > 26 µM in test [4]; > 26 µM in test [5]; > 26 µM in test [6].

On to `CCOC(=O)CCCCCOc1cccc(CN(C(=O)c2ccc(-c3cccc(F)c3)cc2)C(C)C)c1`, for which the EC50 in test [1] is > 15 µM; in test [2] it was > 26 µM; in test [3], > 15 µM; in test [4] it was > 26 µM; in test [5], > 26 µM; in test [6] it was > 26 µM.

Take `CC(C)N(Cc1cccc(OCCCCCC(=O)O)c1)C(=O)c1ccc(-c2cccc(Oc3ccccc3)c2)cc1`: the EC50 in test [1] was > 10.4 µM; in test [2], > 18.8 µM; in test [3], > 10.4 µM; in test [4], > 18.8 µM; in test [5], > 18.8 µM; in test [6], > 18.8 µM.

Regarding `CCOC(=O)CCCCCOc1ccc(CNC(C)C)cc1`, the EC50 is > 15 µM in test [1]; > 26 µM in test [2]; > 15 µM in test [3]; > 26 µM in test [4]; > 26 µM in test [5]; > 26 µM in test [6].

Regarding `Cc1nnc(-c2cccc(-c3ccc(C(=O)N(Cc4cccc(OCCCCCC(=O)O)c4)C(C)C)cc3)c2)o1`, the EC50 in test [1] was > 15 µM; in test [2] it was > 26 µM; in test [3], > 15 µM; in test [4] it was > 26 µM; in test [5], > 26 µM; in test [6] it was > 26 µM.

As for `CCOC(=O)CCCCCOc1cccc(CN(C(=O)c2ccc(-c3cccc(O)c3)cc2)C(C)C)c1`, the EC50 in test [1] was > 15 µM; in test [2], > 26 µM; in test [3], > 15 µM; in test [4] it was > 26 µM; in test [5], > 26 µM; in test [6], > 26 µM.

Turning to `COc1ccc(CCNC(=O)CCO[Si](C)(C)C(C)(C)C)cc1OC`, the EC50 is > 7.51 µM in test [1]; > 13 µM in test [2]; > 2.58 µM in test [3]; 4.89 µM in test [4]; > 13 µM in test [5]; 6.9 µM in test [6].

Regarding `CCOC(=O)CCCCCOc1ccccc1CN(C(=O)c1ccc(-c2ccc3c(c2)OCO3)cc1)C(C)C`, the EC50 in test [1] was > 15 µM; in test [2], > 26 µM; in test [3] it was > 15 µM; in test [4] it was > 26 µM; in test [5], > 26 µM; in test [6] it was > 26 µM.

With `COc1cccc(-c2ccc(C(=O)N(Cc3cccc(OCCCCCC(=O)O)c3)C(C)C)cc2)c1`, the EC50 in test [1] is > 11.6 µM; in test [2], > 21 µM; in test [3], > 11.6 µM; in test [4] it was > 26 µM; in test [5], > 21 µM; in test [6], > 21 µM.

Take `CCOC(=O)CCCCCOc1cccc(CN(C(=O)c2ccc(-c3cccc(CC#N)c3)cc2)C(C)C)c1`: the EC50 in test [1] was > 15 µM; in test [2], > 26 µM; in test [3], > 15 µM; in test [4] it was > 26 µM; in test [5], > 26 µM; in test [6], > 26 µM.

With `CCOC(=O)CCCCCOc1ccccc1C=O`, the EC50 in test [1] was > 15 µM; in test [2], > 26 µM; in test [3], > 15 µM; in test [4], > 26 µM; in test [5], > 26 µM; in test [6], > 26 µM.

With `CC(C)N(Cc1cccc(OCCCCCC(=O)O)c1)C(=O)c1ccc(-c2cccc(F)c2)cc1`, the EC50 in test [1] is > 15 µM; in test [2], > 26 µM; in test [3] it was > 15 µM; in test [4], > 26 µM; in test [5], > 26 µM; in test [6] it was > 26 µM.

For the compound `CCOC(=O)CCCCCOc1cccc(CN(C(=O)c2ccc(-c3cccc(OC(F)(F)F)c3)cc2)C(C)C)c1`, the EC50 is > 15 µM in test [1]; > 26 µM in test [2]; > 15 µM in test [3]; > 26 µM in test [4]; > 26 µM in test [5]; > 26 µM in test [6].

On to `COc1ccc(F)c(-c2ccc(C(=O)N(Cc3cccc(OCCCCCC(=O)O)c3)C(C)C)cc2)c1`, for which the EC50 in test [1] was > 15 µM; in test [2], > 26 µM; in test [3], > 15 µM; in test [4] it was > 26 µM; in test [5], > 26 µM; in test [6], > 26 µM.

Turning to `CCOC(OCC)C1=NCCc2cc(OC)c(OC)cc21`, the EC50 in test [1] was > 7.51 µM; in test [2] it was > 13 µM; in test [3], > 7.51 µM; in test [4], > 13 µM; in test [5] it was > 13 µM; in test [6], > 13 µM.

As usually defined, the EC50 is the midpoint of the concentration-response curve. Low values mean greater potency, high ones weaker potency.
